# The SangsterLogP compilation
# Columns and labels:
# [1] = method code SF-HPLC, from DOI: 10.1016/s0024-3205(00)00615-9, PMID: 10901288; conditions: pH 5.0
# [2] = not given; remark: listed apart in the source
# [3] = method code SF-HPLC, from PMID: 9554875; conditions: pH 6.8
# [4] = from Ganellin, C.; Brown, T.; Griffiths, R.; Jones, M.; Mitchell, C.; Rana, K.; Saunders, D.; Smith, I.; Sore, E.; Wilks, J.; Young, R. (1991). Use of partition coefficients as a model for brain …
# [5] = method code SF-AS, from DOI: 10.1016/0378-5173(85)90003-1
# [6] = not given; remark: listed apart in the source
# [7] = not given; remark: listed apart in the source
# [8] = method code SF-HPLC, from DOI: 10.1016/0731-7085(91)80215-u, PMID: 1821151; conditions: pH 7.4
# [9] = method code SF-RC, from DOI: 10.1016/j.nucmedbio.2014.05.001, PMID: 24969632; conditions: pH 7.4
# [10] = method code SF-AS, from DOI: 10.1016/s0020-1693(00)85781-3
# [11] = method code SF-HPLC, from DOI: 10.1016/j.bmc.2015.09.009, PMID: 26385444
# [12] = method code SF-AS, from DOI: 10.3109/03639048709068705
# [13] = method code SF-AS, from DOI: 10.1248/bpb1978.4.759, PMID: 7320829
# [14] = method code SF-AS, from DOI: 10.1021/jm00234a001, PMID: 1003419
# [15] = not given; remark: listed apart in the source
# [16] = not given; remark: listed apart in the source
# [17] = method code SF-RC, from DOI: 10.1016/j.nucmedbio.2007.12.005, PMID: 18355688; conditions: pH 7.4
# [18] = not given; remark: listed apart in the source
# [19] = method code SF, from DOI: 10.1021/jm00294a005, PMID: 5000561
# [20] = method code SF-HPLC, from DOI: 10.1016/s0223-5234(98)80037-8; conditions: pH 7.4
# [21] = method code SF-HPLC, from DOI: 10.1248/cpb.47.1081, PMID: 10478463; conditions: pH 6.5
# [22] = method code SF-AS, from DOI: 10.1002/ardp.19853180604, PMID: 4026543; conditions: pH 7.4
smiles,measurement,setting,value
Cc1cccc2c1Oc1cc(Cl)ccc1C2NC(=O)CN(C)C (stereo not drawn),logP,,3.44
CCNC(=O)Oc1cc(/C=C(\C#N)C(=O)N(CC)CC)cc([N+](=O)[O-])c1O,logD,[1],0.82
CCCOc1ccc(C(=O)C2c3cccc(O)c3C(=O)c3c(O)cccc32)cc1,logP,[2],3.44
COc1cccc2c1OP(=O)(OC[C@@H]1C=C[C@H](n3cc(C)c(=O)[nH]c3=O)O1)OC2 (stereo partly drawn),logD,[3],0.15
COc1cccnc1CCCCNc1nc(=O)c(Cc2ccc(C)nc2)c[nH]1,logP,[4],2.58
Cc1cn(C2C=CC(COP3(=O)OCc4cc(Cl)ccc4O3)O2)c(=O)[nH]c1=O (stereo not drawn),logD,[3],0.88
Cc1nnc(SCC2=C(C(=O)OCOC(=O)C(C)(C)C)N3C(=O)C(NC(=O)Cn4cnnn4)C3SC2)s1 (stereo not drawn),logD,[5]; pH 4.5,1.34
CC1=C(CC(=O)O)c2cc(F)ccc2/C1=C/c1ccc(S(C)(=O)=O)cc1,logP,[6],3.29
C(=Cc1ccccn1)c1ccc(C=Cc2ccccn2)cc1,logP,[7],3.75
CCC(C(=O)OCC1CCCCC1)C(COC(C)=O)c1cncn1C (stereo not drawn),logD,[8],3.86
O=C(N1CCN(C(c2ccccc2)c2ccccc2)CC1)n1nnc2ccccc21,logD,[9],3.61
c1ccc2c(c1)COCCOCCOCc1ccccc1COCCOC2,logP,[10],2.21
O=C1C(CCS(=O)(=O)c2ccccc2)C(=O)N(c2ccccc2)N1c1ccccc1,logP,[6],3.51
CC1=C(C(=O)Nc2nc3ccccc3s2)C(c2ccc(F)cc2)NC(=S)N1 (stereo not drawn),logP,[11],2.18
CCCCC(=O)OC(CNC(C)C)COc1cccc2ccccc12 (stereo not drawn),logP,[12],6.3
CCCC(=O)OC(CNC(C)C)COc1cccc2ccccc12 (stereo not drawn),logP,[12],5.56
O=C1NC(=O)C(c2ccccc2)(c2ccccc2)N1S(=O)(=O)c1ccc(O)cc1,logD,[13]; pH 7.0,1.62
OCC1OC(Oc2cc(OC3OC(CO)C(O)C(O)C3O)c(I)cc2I)C(O)C(O)C1O (stereo not drawn),logP,[14],-0.25
COc1ccc2cc(C(C)C(=O)OCC(O)CO)ccc2c1 (stereo not drawn),logP,[15],2.65
Clc1ccc2c(c1)CCc1cccnc1C2=C1CCNCC1,logP,[16],2.56
CCCCN(C)C(=O)Cc1c(-c2ccc(Cl)cc2)nc2c(Cl)cc(Cl)cn12,logD,[17],2.2
CC1=C(C(=O)Nc2nc3ccccc3s2)C(c2ccc(N(C)C)cc2)NC(=S)N1 (stereo not drawn),logP,[11],2.22
O=C1C(CCS(=O)c2ccccc2)C(=O)N(c2ccccc2)N1c1ccccc1 (stereo not drawn),logP,[6],3.56
COc1ccc(C(=O)C2c3cccc(O)c3C(=O)c3c(O)cccc32)cc1,logP,[2],3.74
CC(C)(C)C(=O)OCOC(=O)C1=C(CSc2nncs2)CSC2C(NC(=O)Cn3cnnn3)C(=O)N12 (stereo not drawn),logD,[5]; pH 4.6,1.45
OCC1OC(Oc2c(I)cc(I)c(OC3OC(CO)C(O)C(O)C3O)c2I)C(O)C(O)C1O (stereo not drawn),logP,[14],-0.74
COc1ccc2cc(C(C)C(=O)OCC(COC(=O)C(C)c3ccc4cc(OC)ccc4c3)OC(=O)C(C)c3ccc4cc(OC)ccc4c3)ccc2c1 (stereo not drawn),logP,[15],6.84
CCCCCCCCCCCCCCCc1cc(O)cc(O)c1,logP,[18],7.4
CCCCNC(=O)Oc1cc(/C=C(\C#N)C(=O)N(CC)CC)cc([N+](=O)[O-])c1O,logD,[1],1.98
CO[C@@H]1[C@@H](O[C@@H]2O[C@H](C)[C@@H](O[C@H]3C[C@@](C)(O)[C@@H](OC(=O)CC(C)C)[C@H](C)O3)[C@H](N(C)C)[C@H]2O)[C@@H](CC=O)C[C@@H](C)[C@@H](O)/C=C/C=C/C[C@@H](C)OC(=O)C[C@H]1O,logP,[19],2.18
CCC(=O)OC1C(C)OC(OC2C(C)OC(OC3C(CC=O)CC(C)C(O)/C=C/C=C/CC(C)OC(=O)CC(OC(C)=O)C3OC)C(O)C2N(C)C)CC1(C)O (stereo not drawn),logP,[19],1.38
CC(C)Cc1ccc(C(C)C(=O)OCN2C(=O)c3ccccc3C2=O)cc1 (stereo not drawn),logD,[20],5.36
CCOC(=O)OC(C)OC(=O)C1=CCSC2C(NC(=O)C(=NOC)c3csc(N)n3)C(=O)N12 (stereo not drawn),logD,[21],0.96
Cc1cccc2c1Oc1ccccc1C2NC(=O)CN(C)C (stereo not drawn),logP,,2.7
O=C(OC(C(F)(F)F)C(F)(F)F)N1CCN(Cc2cccc(Oc3ccccc3)c2)CC1,logD,[9],5
CCCCN(C)C(=O)Cc1c(-c2ccccc2)nc2c(Cl)cc(Cl)cn12,logD,[17],2.14
CNC(=O)c1c(I)c(O[C@@H]2O[C@H](CO)[C@@H](O)[C@H](O)[C@H]2O)c(I)c(O[C@@H]2O[C@H](CO)[C@@H](O)[C@H](O)[C@H]2O)c1I,logP,[14],-1.57
CCCCCCCCCCCCCCCCCc1cc(O)cc(O)c1,logP,[18],9.2
CCc1ccc2c(c1)COCCOCCOCCOCCOCCOC2,logP,[10],0.98
COc1ccc2cc(C(C)C(=O)OCC3COC(C)(C)O3)ccc2c1 (stereo not drawn),logP,[15],4.23
c1cc(CN2CCCCC2)cc(OCCCNc2nc3ccccc3s2)c1,logP,[4],5.41
CN(C(=O)Cc1c(-c2ccc(Cl)cc2)nc2c(Cl)cc(Cl)cn12)c1ccccc1,logD,[17],2.2
CC1=C(C(=O)Nc2nc3ccccc3s2)C(c2ccc(C(F)(F)F)cc2)NC(=S)N1 (stereo not drawn),logP,[11],2.92
CC(=O)Oc1ccccc1C(=O)OCN1C(=O)c2ccccc2C1=O,logD,[20],3.23
Nc1ccc(S(=O)(=O)N2C(=O)NC(=O)C2(c2ccccc2)c2ccccc2)cc1,logP,[13],3.27
O=C(N1CCC(C(c2ccc3c(c2)OCO3)c2ccc3c(c2)OCO3)CC1)n1cncn1,logD,[9],3.32
Cc1cn(C2C=CC(COP3(=O)OCc4cc([N+](=O)[O-])ccc4O3)O2)c(=O)[nH]c1=O (stereo not drawn),logD,[3],0.18
CCN(CC)C(=O)C(C#N)=Cc1cc(OC(=O)NC(C)(C)C)c(O)c([N+](=O)[O-])c1,logD,[1],1.8
COc1ccc2c(c1)c(CC(=O)OCN1C(=O)c3ccccc3C1=O)c(C)n2C(=O)c1ccc(Cl)cc1,logD,[20],5.64
COc1ccc(N2C(=O)CSC2=Nn2c(C)nc3ccccc3c2=O)cc1,logD,[22],-1.23
O=C1NC(=O)C(c2ccccc2)(c2ccccc2)N1S(=O)(=O)c1ccc([N+](=O)[O-])cc1,logP,[13],4.04
CCCCCCCCCCCCCCCCCCCc1cc(O)cc(O)c1,logP,[18],10.9
CC(=O)OCC1=C(C(=O)OCOC(=O)C(C)(C)C)N2C(=O)C(NC(=O)CSc3ccncc3)C2SC1 (stereo not drawn),logD,[5]; pH 4.6,1.63
CCN(CC)CC(=O)NC1c2ccccc2Oc2c(C)cccc21 (stereo not drawn),logP,,3.73
CN(C)Cc1ccc(CSCCNc2nc(=O)c(Cc3ccc4ccccc4c3)c[nH]2)o1,logP,[4],4.57
OC(CCCN1CCC(C(O)(c2ccccc2)c2ccccc2)CC1)c1ccccc1 (stereo not drawn),logP,[16],3.9
CCCCCCCC(=O)OC(CNC(C)C)COc1cccc2ccccc12 (stereo not drawn),logP,[12],7.87
COc1cc(C=Cc2ccccn2)ccc1C=Cc1ccccn1,logP,[7],4.25
Cc1ccc(N2C(=O)CSC2=Nn2c(C)nc3ccccc3c2=O)cc1,logD,[22],-1.12
Cc1nc2ccccc2c(=O)n1N=C1SCC(=O)N1c1ccc(F)cc1,logD,[22],-1.36
CCC(C(=O)OCC1CCCCC1)C(COC(=O)c1ccccc1)c1cncn1C (stereo not drawn),logD,[8],5.47
CC(C)(C)c1ccc2c(c1)COCCOCCOCCOCCOCCOC2,logP,[10],1.71
COc1cc(C=Cc2ccncc2)ccc1C=Cc1ccncc1,logP,[7],3.73
CN1CCC(=C2c3ccccc3CCc3cccnc32)CC1,logP,[16],3.59
CCCC1CC(C(=O)NC(C(C)O)C2OC(SC)C(O)C(O)C2O)N(C)C1 (stereo not drawn),logP,[19],0.2
CCC(=O)OCC(c1cncn1C)C(CC)C(=O)OCC1CCCCC1 (stereo not drawn),logD,[8],4.4
CON=C(C(=O)NC1C(=O)N2C(C(=O)OCOC(=O)C(C)(C)C)=CCSC12)c1csc(N)n1 (stereo not drawn),logD,[21],1.57
CO/N=C(/C(=O)NC1C(=O)N2C(C(=O)OCc3oc(=O)oc3C)=CCSC12)c1csc(N)n1 (stereo not drawn),logD,[21],0.17
